Source: the NIST ThermoML archive (doi:10.1021/je2005209)
Numbers after ± are expanded uncertainties.

Conditions: 351.55 K; Liquid; Ebulliometric method (Recirculating still)

vapor or sublimation pressure: 101.32 ± 1.1 kPa
SMILES: CCO [ethanol]
